According to patent publication US5180712A, “Petide antidementia and nootropic agents” (Fujirebio Kabushiki Kaisha, priority 1988, dated 1993):
Where a SMILES comes first, the peptide text is derived from it. Bridges are numbered along the chain shown (N, C = ends). Roman numbers before positions name the chains, in order. [ ]: non-standard residue; d: D form. The star is where a group is joined. Cys(free,S-linked) = N[C@@H](CS*)C(=O)O; pGlu = O=C1CC[C@@H](C(=O)O)N1

Assays:
male Wistar rats [1] = assay: one-trial passive avoidance: facilitation effect of memory consolidation; format: in vivo, rat; conditions: for Effect (ratio of the response latent period of each group to that of the control groups): retention tested 24 hours later, latency max 600 seconds
Protocol: The effect of peptides of the invention on memory consolidation was evaluated by conducting one-trial passive avoidance experiments using male Wistar rats in accordance with the method described by Burbach et al., Science, vol. 221, pp. 1310-1312, 1983. The apparatus was composed of an illuminated room and a dark room, and their floors were made of a stainless-steel grid. The rats placed in the illuminated room could freely enter the dark room. Upon entering the dark room the rats received an electro-shock. Retention of passive avoidance behavior to the electro-shock was determined by the measurement of a response latent period, i.e. the period required for the rat which experienced the electro-shock to re-enter the dark room from the time at which the rat was placed in the illuminated room after predetermined intervals. The rats were treated with the peptides of the invention obtained in the aforementioned Example 1 to 4 or a physiological saline solution by means of a subcutaneous injection immediately after receiving the electro-shock (0.25 mA). Then 24 hours later, the retention of the memory of the electro-shock was tested. […] Comparison Compound 2 (known peptide): [drawing 14] For each group, 6 to 8 rats were tested. The response latent period was measured up to a maximum of 600 seconds. The dose and the effect (the ratio of the response latent period of each group to that of the control groups, shown as %) of the peptides obtained in each example and the peptides of each comparison compound are set forth in Table 1.

male Wistar rats [2] = assay: one-trial passive avoidance: improvement effect of experimental retrograde amnesia by cycloheximide; format: in vivo, rat; conditions: 1 hr before electro-shock (0.5 mA), cycloheximide 2.7 to 3.0 mg/kg s.c. after shock, tested at 48 hours
Protocol: The effect of peptides of the invention on memory consolidation was evaluated by conducting one-trial passive avoidance experiments using male Wistar rats in accordance with the method described by Burbach et al., Science, vol. 221, pp. 1310-1312, 1983. The apparatus was composed of an illuminated room and a dark room, and their floors were made of a stainless-steel grid. The rats placed in the illuminated room could freely enter the dark room. Upon entering the dark room the rats received an electro-shock. Retention of passive avoidance behavior to the electro-shock was determined by the measurement of a response latent period, i.e. the period required for the rat which experienced the electro-shock to re-enter the dark room from the time at which the rat was placed in the illuminated room after predetermined intervals. The rats received an electro-shock (0.5 mA) one hr. after the administration of the peptides of the invention or a physiological saline solution. Immediately after receiving the electro-shock, the rats were treated with 2.7 to 3.0 mg/kg of cycloheximide or the saline solution by subcutaneous injection. At 48 hours after the administration was made, memory retention of the rats was tested. […] The average response latent period of rats administered with each peptide of the invention and treated with cycloheximide were compared with that of the control group. Six to eight rats were used for each group tested. The response latent period was measured up to a maximum of 600 seconds. The dose and the effect (the ratio of response latent period of each group to that of the control groups, shown as %) of the peptides obtained in each example and the peptides of each comparison example are set forth in Table 2.

[3] = dose 1 ng/kg subcutaneous immediately after electro-shock (0.25 mA)

Row | SMILES | Effect (ratio of the response latent period of each group to that of the control groups) (male Wistar rats [1]; dose 10 ng/kg subcutaneous immediately after electro-shock (0.25 mA)) [%] | Effect (ratio of response latent period of each group to that of the control groups) (male Wistar rats [2]; dose 100 ng/kg) [%] | Effect (ratio of the response latent period of each group to that of the control groups) (male Wistar rats [1]; [3]) [%] | Effect (ratio of response latent period of each group to that of the control groups) (male Wistar rats [2]; dose 1 ng/kg) [%] | dose giving the same effect, as fraction of the dose of Comparison Compound 1 (male Wistar rats [1]; passive avoidance tests, versus Comparison Compound 1)
1 | N=C(N)NCCC[C@H](NC(=O)[C@@H]1CCCN1C(=O)[C@H](CSSC[C@H](NC(=O)[C@H](CC(N)=O)NC(=O)[C@@H]1CCC(=O)N1)C(=O)N1CCC[C@H]1C(=O)N[C@@H](CCCNC(=N)N)C(=O)NCC(N)=O)NC(=O)[C@H](CC(N)=O)NC(=O)[C@@H]1CCC(=O)N1)C(=O)NCC(N)=O [Comparison 2, reference compound] (I: [pGlu]NCPRG-NH2 / II: [pGlu]NCPRG-NH2; disulfide I:3-II:3) | 249 | 503 | – | – | –
2 | N=C(N)NCCC[C@H](NC(=O)[C@@H]1CCCN1C(=O)[C@H](CS)NC(=O)[C@@H](N)CC(N)=O)C(=O)O [Example 4, H-Asn-Cys-Pro-Arg-OH acetate] (H-NCPR-OH) | – | – | 316 | 320 | –
3 | N=C(N)NCCC[C@H](NC(=O)[C@H]1CCCN1C(=O)[C@H](CSSC[C@H](N)C(=O)O)NC(=O)[C@H](CC(N)=O)NC(=O)[C@@H]1CCC(=O)N1)C(=O)NCC(N)=O [Example 3] ([pGlu]NC(Cys(free,S-linked))[dP]RG-NH2) | – | – | 253 | 380 | –
4 | N=C(N)NCCC[C@H](NC(=O)[C@@H]1CCCN1C(=O)[C@H](CS)NC(=O)[C@H](CC(N)=O)NC(=O)[C@@H]1CCC(=O)N1)C(=O)NCC(N)=O [Example 2, pGlu-Asn-Cys-Pro-Arg-Gly--NH2 acetate] ([pGlu]NCPRG-NH2) | – | – | 295 | 633 | –
5 | N=C(N)NCCC[C@@H](NC(=O)[C@@H]1CCCN1C(=O)[C@H](CSSC[C@H](N)C(=O)O)NC(=O)[C@H](CC(N)=O)NC(=O)[C@@H]1CCC(=O)N1)C(=O)NCC(N)=O [Example 1] ([pGlu]NC(Cys(free,S-linked))P[dR]G-NH2) | – | – | 267 | 302 | 1/10
